Experimental data taken from patent EP3778613A1, “THIRD GENERATION DENDRIMER, PROCESS FOR PRODUCTION THEREOF AND USE THEREOF” (Consejo Superior de Investigaciones Científicas (CSIC), priority 2019, dated 2021).

Legend:
[1] = Kinetics of reduction of PROXYL with ascorbate, followed by EPR; assay type: physicochemical; settings: nitroxide reduction with sodium ascorbate (10-fold excess per PROXYL unit), 100 mM PB pH 7.4, 300 K
Text: Electronic Paramagnetic Resonance Spectroscopy (EPR) spectra were obtained with an X-Band (9.4 GHz) Bruker ELEXSYS 500 spectrometer equipped with a TE102 microwave cavity, a Bruker variable temperature unit, a field frequency lock system Bruker ER 033 M and equipped with a NMR Gaussmeter Bruker ER 035 M. The modulation amplitude was kept well below the line width, and the microwave power was well below saturation. All samples were previously degassed with Ar. Experiments in aqueous phase were carried out with a quartz flat cell.
Kinetics of reduction of PROXYL with ascorbate. All the solutions were freshly prepared in 100 mM phosphate buffer, pH 7.4. […]
The effect of the dendritic scaffold on nitroxyl rate of reduction was investigated under pseudo-first-order conditions, using a 10-fold excess of sodium ascorbate per PROXYL unit in 100 mM PB pH 7.4 at 300 K. The reduction was monitored by EPR spectroscopy following the decrease of the area under the spectra as a function of time (Figure 4a). As reference, the rate of reduction of 3-carboxy-PROXYL was determined under identical conditions. […] Rate constants were determined by EPR spectroscopy following the decrease of the area under the spectra as a function of time.

[2] = Relaxometric measurements (r1, r2 relaxivity) by MRI at 7 T; settings: 100 mM phosphate buffer pH 7.4, 300K
Experimental: Magnetic Resonance Imaging (MRI) experiments were carried out in a BioSpec 70/30 Bruker system using a 7.0 T horizontal-bore superconducting magnet equipped with actively shielded gradients (B-GA12 gradient coil inserted into a B-GA20S gradient system). A quadrature 72 mm inner diameter volume coil was used for in vitro studies.
Relaxometric measurements. Longitudinal (r1) and transverse (r2) relaxivities were determined per concentration of PROXYL units. […] The software used for the calculations of T1 and T2 relaxations was Paravision 6.0 (Bruker Software). r1 relaxivity. Series of axial T1-weighted (T1W) images were acquired for each concentration of PROXYL to obtain T1 maps based on a magnetization saturation experiment and the following parameters: repetition time (TR) = 70-6000 ms, echo time (TE) = 9.2 ms, field of view (FOV) = 2.5 x 2.5 cm, averages (Av) = 1, acquisition matrix (Mtx) = 128 x 128. The T1 values were calculated from the mean signal in the region of interest (ROI) for each repetition time, adjusted to the equation: S = S0 [1 - […]]. r2 relaxivity. T2 maps were calculated from multi spin echo images with a TR of 2 s. 25 echo images were acquired with a TE of 8.02 ms, which was the interval time between echo images acquisitions, too. […] The T2 values were calculated from mean signal in the ROI for each echo image, adjusted according to the equation: S = S0 […]]. […]

[3] = r.t. 7T, reference value for the clinical Gd contrast agent; cited from earlier work

CC1(C)CC(C(=O)O)C(C)(C)N1[O] (stereo not shown) [3-carboxy PROXYL, 3-carboxy-PROXYL]
Initial stage k (M^-1s^-1) x 10^3 [1]: 11.2 M^-1s^-1 x 10^3 | r1^7T ([2]; longitudinal relaxivity per unit of nitroxyl radical): 0.20 ± 0.014 mM⁻¹ s⁻¹ | r2^7T ([2]; transverse relaxivity per unit of nitroxyl radical): 0.23 ± 0.06 mM⁻¹ s⁻¹

O=C([O-])CN(CCN(CC(=O)[O-])CC(=O)O)CCN(CC(=O)[O-])CC(=O)O.[Gd+3] [Gd-DTPA]
relaxivity [3]: 3.2 s⁻¹ mM⁻¹
